# Results as given in PubChem BioAssay (NCI).
#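 Protocol summary: plate cells (96-well), add compound at 5 concentrations, incubate 48 h, interpolate endpoints linearly. GI50 is the concentration that inhibits growth by half. At the TGI there is no net growth.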
# Assays:
# Assay in all cases: DTP human tumour cell line panel, 48 h
# 786-0 renal = test system: 786-0 renal
# A498 renal = test system: A498 renal
# A549 NSCLC = test system: A549 NSCLC
# ACHN renal = test system: ACHN renal
# BT-549 breast = test system: BT-549 breast
# CAKI-1 renal = test system: CAKI-1 renal
# CCRF-CEM leukemia = test system: CCRF-CEM leukemia
# COLO 205 colon = test system: COLO 205 colon
# DU-145 prostate = test system: DU-145 prostate
# EKVX NSCLC = test system: EKVX NSCLC
# HCC-2998 colon = test system: HCC-2998 colon
# HCT-116 colon = test system: HCT-116 colon
# HCT-15 colon = test system: HCT-15 colon
# HL-60(TB) leukemia = test system: HL-60(TB) leukemia
# HOP-62 NSCLC = test system: HOP-62 NSCLC
# HOP-92 NSCLC = test system: HOP-92 NSCLC
# HS 578T breast = test system: HS 578T breast
# HT29 colon = test system: HT29 colon
# IGROV1 ovarian = test system: IGROV1 ovarian
# K-562 leukemia = test system: K-562 leukemia
# KM12 colon = test system: KM12 colon
# LOX IMVI melanoma = test system: LOX IMVI melanoma
# M14 melanoma = test system: M14 melanoma
# MCF7 breast = test system: MCF7 breast
# MDA-MB-231 breast = test system: MDA-MB-231 breast
# MDA-MB-435 = test system: MDA-MB-435
# MOLT-4 leukemia = test system: MOLT-4 leukemia
# NCI-H226 lung = test system: NCI-H226 lung
# NCI-H23 lung = test system: NCI-H23 lung
# NCI-H460 lung = test system: NCI-H460 lung
# NCI-H522 lung = test system: NCI-H522 lung
# NCI/ADR-RES ovarian = test system: NCI/ADR-RES ovarian
# OVCAR-3 ovarian = test system: OVCAR-3 ovarian
# OVCAR-4 ovarian = test system: OVCAR-4 ovarian
# OVCAR-5 ovarian = test system: OVCAR-5 ovarian
# OVCAR-8 ovarian = test system: OVCAR-8 ovarian
# PC-3 prostate = test system: PC-3 prostate
# RPMI-8226 leukemia = test system: RPMI-8226 leukemia
# RXF 393 renal = test system: RXF 393 renal
# SF-268 CNS = test system: SF-268 CNS
# SF-295 CNS = test system: SF-295 CNS
# SF-539 CNS = test system: SF-539 CNS
# SK-MEL-2 melanoma = test system: SK-MEL-2 melanoma
# SK-MEL-28 melanoma = test system: SK-MEL-28 melanoma
# SK-MEL-5 melanoma = test system: SK-MEL-5 melanoma
# SK-OV-3 ovarian = test system: SK-OV-3 ovarian
# SN12C renal = test system: SN12C renal
# SNB-19 CNS = test system: SNB-19 CNS
# SNB-75 CNS = test system: SNB-75 CNS
# SR leukemia = test system: SR leukemia
# SW-620 colon = test system: SW-620 colon
# T-47D breast = test system: T-47D breast
# TK-10 renal = test system: TK-10 renal
# U251 CNS = test system: U251 CNS
# UACC-257 melanoma = test system: UACC-257 melanoma
# UACC-62 melanoma = test system: UACC-62 melanoma
# UO-31 renal = test system: UO-31 renal
compound,measurement,setting,value
COC(=O)[C@H]1[C@@H](O)[C@@]2(O)c3c(OC)cc(OC)cc3O[C@@]2(c2ccc(OC)cc2)[C@@H]1c1ccccc1,GI50,786-0 renal,45.1 nM
same,TGI,786-0 renal,267 nM
same,GI50,A498 renal,10 nM
same,TGI,A498 renal,48.5 nM
same,GI50,A549 NSCLC,8.57 nM
same,TGI,A549 NSCLC,177 nM
same,GI50,ACHN renal,10.2 nM
same,TGI,ACHN renal,166 nM
same,GI50,BT-549 breast,39.9 nM
same,TGI,BT-549 breast,213 nM
same,GI50,CAKI-1 renal,28.5 nM
same,TGI,CAKI-1 renal,2720 nM
same,GI50,CCRF-CEM leukemia,14.7 nM
same,TGI,CCRF-CEM leukemia,5690 nM
same,GI50,COLO 205 colon,15.3 nM
same,TGI,COLO 205 colon,52 nM
same,GI50,DU-145 prostate,17.3 nM
same,TGI,DU-145 prostate,207 nM
same,GI50,EKVX NSCLC,20.6 nM
same,TGI,EKVX NSCLC,360 nM
same,GI50,HCC-2998 colon,8.33 nM
same,TGI,HCC-2998 colon,205 nM
same,GI50,HCT-116 colon,10.2 nM
same,TGI,HCT-116 colon,179 nM
same,GI50,HCT-15 colon,10.9 nM
same,TGI,HCT-15 colon,447 nM
same,GI50,HL-60(TB) leukemia,18.3 nM
same,TGI,HL-60(TB) leukemia,108 nM
same,GI50,HOP-62 NSCLC,11.8 nM
same,TGI,HOP-62 NSCLC,101 nM
same,GI50,HOP-92 NSCLC,48 nM
same,TGI,HOP-92 NSCLC,3890 nM
same,GI50,HS 578T breast,44.2 nM
same,TGI,HS 578T breast,1280 nM
same,GI50,HT29 colon,7.13 nM
same,TGI,HT29 colon,93.5 nM
same,GI50,IGROV1 ovarian,20.7 nM
same,TGI,IGROV1 ovarian,1340 nM
same,GI50,K-562 leukemia,9.61 nM
same,TGI,K-562 leukemia,6820 nM
same,GI50,KM12 colon,< 10.5 nM
same,TGI,KM12 colon,757 nM
same,GI50,LOX IMVI melanoma,11.5 nM
same,TGI,LOX IMVI melanoma,75.9 nM
same,GI50,M14 melanoma,11.9 nM
same,TGI,M14 melanoma,52.2 nM
same,GI50,MCF7 breast,6.7 nM
same,TGI,MCF7 breast,231 nM
same,GI50,MDA-MB-231 breast,32.8 nM
same,TGI,MDA-MB-231 breast,132 nM
same,GI50,MDA-MB-435,12.1 nM
same,TGI,MDA-MB-435,626 nM
same,GI50,MOLT-4 leukemia,6.22 nM
same,TGI,MOLT-4 leukemia,488 nM
same,GI50,NCI-H226 lung,11.8 nM
same,TGI,NCI-H226 lung,260 nM
same,GI50,NCI-H23 lung,15.5 nM
same,TGI,NCI-H23 lung,146 nM
same,GI50,NCI-H460 lung,5.37 nM
same,TGI,NCI-H460 lung,653 nM
same,GI50,NCI-H522 lung,17 nM
same,TGI,NCI-H522 lung,106 nM
same,GI50,NCI/ADR-RES ovarian,19.8 nM
same,TGI,NCI/ADR-RES ovarian,101 nM
same,GI50,OVCAR-3 ovarian,22.3 nM
same,TGI,OVCAR-3 ovarian,304 nM
same,GI50,OVCAR-4 ovarian,26.6 nM
same,TGI,OVCAR-4 ovarian,659 nM
same,GI50,OVCAR-5 ovarian,40.3 nM
same,TGI,OVCAR-5 ovarian,1030 nM
same,GI50,OVCAR-8 ovarian,32.7 nM
same,TGI,OVCAR-8 ovarian,408 nM
same,GI50,PC-3 prostate,18.6 nM
same,TGI,PC-3 prostate,6250 nM
same,GI50,RPMI-8226 leukemia,19.2 nM
same,TGI,RPMI-8226 leukemia,339 nM
same,GI50,RXF 393 renal,10.5 nM
same,TGI,RXF 393 renal,78.2 nM
same,GI50,SF-268 CNS,25.6 nM
same,TGI,SF-268 CNS,492 nM
same,GI50,SF-295 CNS,14.1 nM
same,TGI,SF-295 CNS,126 nM
same,GI50,SF-539 CNS,7.9 nM
same,TGI,SF-539 CNS,72 nM
same,GI50,SK-MEL-2 melanoma,29.2 nM
same,TGI,SK-MEL-2 melanoma,89.6 nM
same,GI50,SK-MEL-28 melanoma,26.1 nM
same,TGI,SK-MEL-28 melanoma,277 nM
same,GI50,SK-MEL-5 melanoma,18.2 nM
same,TGI,SK-MEL-5 melanoma,81.4 nM
same,GI50,SK-OV-3 ovarian,11.9 nM
same,TGI,SK-OV-3 ovarian,231 nM
same,GI50,SN12C renal,19 nM
same,TGI,SN12C renal,214 nM
same,GI50,SNB-19 CNS,16.2 nM
same,TGI,SNB-19 CNS,716 nM
same,GI50,SNB-75 CNS,42.9 nM
same,TGI,SNB-75 CNS,1250 nM
same,GI50,SR leukemia,14.2 nM
same,TGI,SR leukemia,16700 nM
same,GI50,SW-620 colon,9.12 nM
same,TGI,SW-620 colon,2320 nM
same,GI50,T-47D breast,7.22 nM
same,TGI,T-47D breast,103 nM
same,GI50,TK-10 renal,45.5 nM
same,TGI,TK-10 renal,166 nM
same,GI50,U251 CNS,23.8 nM
same,TGI,U251 CNS,749 nM
same,GI50,UACC-257 melanoma,44.8 nM
same,TGI,UACC-257 melanoma,143 nM
same,GI50,UACC-62 melanoma,38.3 nM
same,TGI,UACC-62 melanoma,569 nM
same,GI50,UO-31 renal,< 17.2 nM
same,TGI,UO-31 renal,129 nM
